Assay results published in US8063048B2, “Acetylenyl-pyrazolo-pyrimidine derivatives” (Hoffmann-La Roche Inc., priority 2005, dated 2011).

melting point [°C]	SMILES
205 to 206	CCc1cc(-c2ccc(Cl)cc2)nc2c(C#Cc3ccc(N)nc3)cnn12 [Example 304, 5-[5-(4-Chloro-phenyl)-7-ethyl-pyrazolo[1,5-a]pyrimidin-3-ylethynyl]-pyridin-2-ylamine]
218	CCOc1cc(-c2cc(C(F)(F)F)n3ncc(C#Cc4ccc(N)nc4)c3n2)ccc1C(F)(F)F [Example 189, 5-[5-(3-Ethoxy-4-trifluoromethyl-phenyl)-7-trifluoromethyl-pyrazolo[1,5-a]pyrimidin-3-ylethynyl]-pyridin-2-ylamine]
264	NS(=O)(=O)c1cc(C#Cc2cnn3c(C(F)(F)F)cc(-c4cccc(C(F)(F)F)c4)nc23)c(F)cc1F [Example 116, 2,4-Difluoro-5-[7-trifluoromethyl-5-(3-trifluoromethyl-phenyl)-pyrazolo[1,5-a]pyrimidin-3-ylethynyl]-benzenesulfonamide]
238	NS(=O)(=O)c1cncc(C#Cc2cnn3c(C(F)F)cc(-c4ccc(C(F)(F)F)cc4)nc23)c1 [Example 30, 5-[7-Difluoromethyl-5-(4-trifluoromethyl-phenyl)-pyrazolo[1,5-a]pyrimidin-3-ylethynyl]-pyridine-3-sulfonic acid amide]
265 to 267	Cc1ccc(C#Cc2cnn3c(C(F)F)cc(-c4ccc(C(F)(F)F)cc4)nc23)cc1S(N)(=O)=O [Example 60, 5-[7-Difluoromethyl-5-(4-trifluoromethyl-phenyl)-pyrazolo[1,5-a]pyrimidin-3-ylethynyl]-2-methyl-benzenesulfonamide]
190 to 191	CC(CO)(CO)NS(=O)(=O)c1cncc(C#Cc2cnn3c(C4CC4)cc(-c4ccc(C(F)(F)F)cc4)nc23)c1 [Example 80, 5-[7-Cyclopropyl-5-(4-trifluoromethyl-phenyl)-pyrazolo[1,5-a]pyrimidin-3-ylethynyl]-pyridine-3-sulfonic acid (2-hydroxy-1-hydroxymethyl-1-methyl-ethyl)-amide]
213 to 216	Fc1ccc(C#Cc2cnn3c(C(F)(F)F)cc(-c4ccc(C(F)(F)F)cc4)nc23)cn1 [Example 149, 3-(6-Fluoro-pyridin-3-ylethynyl)-7-trifluoromethyl-5-(4-trifluoromethyl-phenyl)-pyrazolo[1,5-a]pyrimidine]
198	Cc1ncccc1C#Cc1cnn2c(C(F)(F)F)cc(-c3ccc(C(F)(F)F)cc3)nc12 [Example 12, 3-(2-Methyl-pyridin-3-ylethynyl)-7-trifluoromethyl-5-(4-trifluoromethyl-phenyl)-pyrazolo[1,5-a]pyrimidine]
220	Cc1cc(-c2cc(C(F)F)n3ncc(C#Cc4ccc(S(=O)(=O)NC(C)(C)C)s4)c3n2)ccc1Cl [Example 171, 5-[5-(4-Chloro-3-methyl-phenyl)-7-difluoromethyl-pyrazolo[1,5-a]pyrimidin-3-ylethynyl]-thiophene-2-sulfonic acid tert-butylamide]
251	NS(=O)(=O)c1cnc(C#Cc2cnn3c(C(F)(F)F)cc(-c4cccc(C(F)(F)F)c4)nc23)s1 [Example 105, 2-[7-Trifluoromethyl-5-(3-trifluoromethyl-phenyl)-pyrazolo[1,5-a]pyrimidin-3-ylethynyl]-thiazole-5-sulfonic acid amide]
248 to 249	NS(=O)(=O)c1cncc(C#Cc2cnn3ccc(-c4ccc(Cl)cc4)nc23)c1 [Example 73, 5-[5-(4-Chloro-phenyl)-pyrazolo[1,5-a]pyrimidin-3-ylethynyl]-pyridine-3-sulfonic acid amide]
158 to 159	FC(F)(F)c1ccc(-c2cc(C(F)(F)F)n3ncc(C#Cc4ccccn4)c3n2)cc1 [Example 6, 3-Pyridin-2-ylethynyl-7-trifluoromethyl-5-(4-trifluoromethyl-phenyl)-pyrazolo[1,5-a]pyrimidine]
199	NS(=O)(=O)c1cccc(C#Cc2cnn3c(C(F)F)cc(-c4cccc(C(F)(F)F)c4)nc23)c1 [Example 167, 3-[7-Difluoromethyl-5-(3-trifluoromethyl-phenyl)-pyrazolo[1,5-a]pyrimidin-3-ylethynyl]-benzenesulfonamide]
276 to 277	NC(=O)c1ccc(C#Cc2cnn3c(C(F)F)cc(-c4ccc(C(F)(F)F)cc4)nc23)cn1 [Example 206, 5-[7-Difluoromethyl-5-(4-trifluoromethyl-phenyl)-pyrazolo[1,5-a]pyrimidin-3-ylethynyl]-pyridine-2-carboxylic acid amide]
112 to 115	Cc1cc(-c2ccc(Cl)cc2)nc2c(C#Cc3ccc(C(C)(C)O)cc3)cnn12 [Example 301, 2-{4-[5-(4-Chloro-phenyl)-7-methyl-pyrazolo[1,5-a]pyrimidin-3-ylethynyl]-phenyl}-propan-2-ol]
264	NS(=O)(=O)c1ccc(C#Cc2cnn3c(C(F)(F)F)cc(-c4cccc(C(F)(F)F)c4)nc23)cc1 [Example 113, 4-[7-Trifluoromethyl-5-(3-trifluoromethyl-phenyl)-pyrazolo[1,5-a]pyrimidin-3-ylethynyl]-benzenesulfonamide]
160	O=S(=O)(c1ccc(C#Cc2cnn3c(C(F)(F)F)cc(-c4cccc(C(F)(F)F)c4)nc23)s1)N1CCNCC1 [Example 261, 3-[5-(piperazine-1-sulfonyl)-thiophen-2-ylethynyl]-7-trifluoromethyl-5-(3-trifluoromethyl-phenyl)-pyrazolo[1,5-a]pyrimidine]
194 to 195	Cc1cc(C#Cc2cnn3c(C(F)F)cc(-c4ccc(C(F)(F)F)cc4)nc23)cnc1N [Example 142, 5-[7-Difluoromethyl-5-(4-trifluoromethyl-phenyl)-pyrazolo[1,5-a]pyrimidin-3-ylethynyl]-3-methyl-pyridin-2-ylamine]
225	Nc1ccc(C#Cc2ncn3c(C(F)(F)F)cc(-c4ccc(C(F)(F)F)cc4)nc23)cn1 [Example 284, 5-[4-Trifluoromethyl-2-(4-trifluoromethyl-phenyl)-imidazo[1,5-a]pyrimidin-8-ylethynyl]-pyridin-2-ylamine]
217	Cc1cc(-c2cc(C(F)(F)F)n3ncc(C#Cc4ncc(S(=O)(=O)NC(C)(C)CO)s4)c3n2)ccc1Cl [Example 106, 2-[5-(4-Chloro-3-methyl-phenyl)-7-trifluoromethyl-pyrazolo[1,5-a]pyrimidin-3-ylethynyl]-thiazole-5-sulfonic acid (2-hydroxy-1,1-dimethyl-ethyl)-amide]
280 to 281	NS(=O)(=O)c1cc(C#Cc2cnn3c(C4CC4)cc(-c4ccc(Cl)c(Cl)c4)nc23)c(F)cc1F [Example 85, 5-[7-Cyclopropyl-5-(3,4-dichloro-phenyl)-pyrazolo[1,5-a]pyrimidin-3-ylethynyl]-2,4-difluoro-benzenesulfonamide]
172 to 174	O=S(=O)(NCCc1ccncc1)c1ccc(C#Cc2cnn3c(C4CC4)cc(-c4ccc(Cl)cc4)nc23)s1 [Example 318, 5-[5-(4-Chloro-phenyl)-7-cyclopropyl-pyrazolo[1,5-a]pyrimidin-3-ylethynyl]-thiophene-2-sulfonic acid (2-pyridin-4-yl-ethyl)-amide]
